Reference: patent US8394801B2, “Quinoxaline derivatives and their use for treating benign and malignant tumour disorders” (Aeterna Zentaris GmbH, priority 2009, dated 2013)

Key:
NCI-H460 = assay: Proliferation assay (Alamar Blue / XTT), NCI-H460; type: cell-based; conditions: Homo sapiens; cell line NCI-H460 (lung)
HCT116 = assay: Proliferation assay (Alamar Blue / XTT), HCT116; type: cell-based; conditions: Homo sapiens; cell line HCT-116 (colon)
MDA MB468 = assay: Proliferation assay (Alamar Blue / XTT), MDA MB468; type: cell-based; conditions: Homo sapiens, MDA-MB-468; cell line MDA-MB468 (breast)
PC-3 = assay: Proliferation assay (Alamar Blue / XTT), PC-3; type: cell-based; conditions: Homo sapiens, cell line PC3 (prostate)
A549 = assay: Proliferation assay (Alamar Blue / XTT), A549; type: cell-based; conditions: Homo sapiens; cell line A549 (lung)
U87MG = assay: Proliferation assay (Alamar Blue / XTT), U87MG; type: cell-based; conditions: Homo sapiens, U-87 MG; cell line U87MG (glioma)
SKOV-3 = assay: Proliferation assay (Alamar Blue / XTT), SKOV-3; type: cell-based; conditions: Homo sapiens, SK-OV-3; cell line SKOV-3 (ovaries)

Compound C=CCNC(=O)Nc1cnc2ccc(-c3cc(C)c(O)c(C)c3)cc2n1 [Compound 41, 1-Allyl-3-[7-(4-hydroxy-3,5-dimethylphenyl)quinoxalin-2-yl]urea] has an EC50 (NCI-H460) of 218 nM, an EC50 (HCT116) of 91 nM and an EC50 (MDA MB468) of 131 nM. It also gave an EC50 (PC-3) of 76 nM, an EC50 (A549) of 217 nM and an EC50 (U87MG) of 105 nM.

Cc1cc(-c2ccc3ncc(NC(=O)NC4CCCCC4)nc3c2)cc(C)c1O [Compound 12, 1-Cyclohexyl-3-[7-(4-hydroxy-3,5-dimethylphenyl)quinoxalin-2-yl]urea] showed an EC50 (NCI-H460) of 85 nM, an EC50 (SKOV-3) of 67 nM and an EC50 (HCT116) of 42 nM. For the same compound, the EC50 (MDA MB468) was 125 nM, the EC50 (PC-3) was 51 nM and the EC50 (A549) was 76 nM. It also gave an EC50 (U87MG) of 77 nM.

CCCNC(=O)Nc1cnc2ccc(-c3cc(Cl)c(O)c(Cl)c3)cc2n1 [Compound 73, 1-[7-(3,5-Dichloro-4-hydroxy-phenyl)-quinoxalin-2-yl]-3-propyl-urea] gave an EC50 (HCT116) of 1560 nM, an EC50 (MDA MB468) of 814 nM and an EC50 (PC-3) of 1180 nM. For the same compound, the EC50 (A549) was 3360 nM, the EC50 (U87MG) was 4140 nM and the melting point was 295 to 296 °C.

Oc1c(Cl)cc(-c2ccc3ncc(NC(=S)NC4CCCCCCC4)nc3c2)cc1Cl [Compound 93, 1-Cyclooctyl-3-[7-(3,5-dichloro-4-hydroxy-phenyl)-quinoxalin-2-yl]-thiourea] showed an EC50 (HCT116) of 409 nM, an EC50 (MDA MB468) of 193 nM and an EC50 (PC-3) of 334 nM. For the same compound, the EC50 (A549) was 1030 nM, the EC50 (U87MG) was 1800 nM and the melting point was 288 to 289 °C.

Work on CC(C)NC(=O)Nc1cnc2ccc(-c3cnn(C)c3)cc2n1 [Compound 70, 1-Isopropyl-3-[7-(1-methyl-1H-pyrazol-4-yl)-quinoxalin-2-yl]-urea] yielded an EC50 (HCT116) of 564 nM, an EC50 (MDA MB468) of 991 nM and an EC50 (PC-3) of 601 nM. The EC50 (A549) was 1320 nM, the EC50 (U87MG) was 801 nM and the melting point was 260 to 263 °C.

For CCCCNC(=S)Nc1cnc2ccc(-c3cc(Cl)c(O)c(Cl)c3)cc2n1 [Compound 87, 1-Butyl-3-[7-(3,5-dichloro-4-hydroxy-phenyl)-quinoxalin-2-yl]thiourea], the EC50 (HCT116) was 1090 nM, the EC50 (MDA MB468) was 464 nM and the EC50 (PC-3) was 790 nM. It also gave an EC50 (A549) of 1530 nM, an EC50 (U87MG) of 2490 nM and a melting point of 226 to 227 °C.

In the case of Cc1cc(-c2ccc3ncc(NC(=O)Nc4cccs4)nc3c2)cc(C)c1O [Compound 15, 1-[7-(4-Hydroxy-3,5-dimethylphenyl)quinoxalin-2-yl]-3-thiophen-2-ylurea], the EC50 (NCI-H460) is reported as 714 nM, the EC50 (SKOV-3) is reported as 1810 nM and the EC50 (HCT116) is reported as 475 nM. The EC50 (MDA MB468) was 835 nM, the EC50 (PC-3) was 309 nM and the EC50 (A549) was 836 nM. The EC50 (U87MG) was 1340 nM.

For CC(C)NC(=O)Nc1cnc2ccc(-c3ccc(N)cc3)cc2n1 [Compound 68, 1-[7-(4-Amino-phenyl)-quinoxalin-2-yl]-3-isopropyl-urea], the EC50 (HCT116) was 474 nM, the EC50 (MDA MB468) was 1670 nM and the EC50 (PC-3) was 453 nM. The EC50 (A549) was 626 nM, the EC50 (U87MG) was 529 nM and the melting point was over 300 °C.

CCCCNC(=O)Nc1cnc2ccc(-c3cc(Cl)c(O)c(Cl)c3)cc2n1 [Compound 72, 1-Butyl-3-[7-(3,5-dichloro-4-hydroxy-phenyl)-quinoxalin-2-yl]-urea] gave an EC50 (HCT116) of 1820 nM, an EC50 (MDA MB468) of 779 nM and an EC50 (PC-3) of 880 nM. For the same compound, the EC50 (A549) was 3260 nM, the EC50 (U87MG) was 3190 nM and the melting point was 297 to 298 °C.

In the case of Oc1c(Cl)cc(-c2ccc3ncc(NC(=S)NCCc4ccccc4)nc3c2)cc1Cl [Compound 97, 1-[7-(3,5-Dichloro-4-hydroxy-phenyl)-quinoxalin-2-yl]-3-phenethyl-thiourea], the EC50 (HCT116) is reported as 700 nM, the EC50 (MDA MB468) is reported as 568 nM and the EC50 (PC-3) is reported as 538 nM. It also gave an EC50 (A549) of 1510 nM, an EC50 (U87MG) of 1820 nM and a melting point of 282 to 285 °C.

With CCCCCNC(=S)Nc1cnc2ccc(-c3cc(Cl)c(O)c(Cl)c3)cc2n1 [Compound 90, 1-[7-(3,5-Dichloro-4-hydroxy-phenyl)-quinoxalin-2-yl]-3-pentyl-thiourea] the EC50 (HCT116) was 1010 nM, the EC50 (MDA MB468) was 318 nM and the EC50 (PC-3) was 556 nM. For the same compound, the EC50 (A549) was 1090 nM, the EC50 (U87MG) was 1230 nM and the melting point was 237 to 238 °C.
